{"source": "paper PMC11528321", "about": "(RSC Medicinal Chemistry, 2024)", "key": {"[1]": {"tested_on": "OE33 and FLO-1 cells", "test": "Antiproliferative screening, both OC cell lines together", "type": "cell-based, human", "settings": "for antiproliferative activity (in words): dose range 0.003-30 μM"}, "[2]": {"tested_on": "FLO-1 cells", "test": "Cell cycle assay", "type": "cell-based, human", "settings": "3 μM, 72 h, vs DMSO control"}, "[3]": {"target": "T1, Nano-Luc-Aurora A (fusion vector) in HEK293 (Homo sapiens, UniProt O14965)", "T1 sequence (O14965 1-403)": "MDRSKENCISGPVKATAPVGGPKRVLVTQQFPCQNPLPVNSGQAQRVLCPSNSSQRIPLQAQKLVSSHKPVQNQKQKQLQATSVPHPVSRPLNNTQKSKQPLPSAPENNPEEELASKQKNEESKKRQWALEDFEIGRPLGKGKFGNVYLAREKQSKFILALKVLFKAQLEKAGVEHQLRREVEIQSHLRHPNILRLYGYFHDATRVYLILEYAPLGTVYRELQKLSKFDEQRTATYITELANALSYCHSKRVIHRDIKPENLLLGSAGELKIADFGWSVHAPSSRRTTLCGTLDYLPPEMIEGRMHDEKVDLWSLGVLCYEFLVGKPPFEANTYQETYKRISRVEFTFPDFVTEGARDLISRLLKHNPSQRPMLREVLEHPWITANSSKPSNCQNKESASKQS", "test": "NanoBRET target engagement assay", "type": "cell-based", "settings": "HEK293, 1 h treatment, 0.001-100 µM"}, "[4]": {"target": "T2, AXL (Homo sapiens, UniProt P30530)", "T2 sequence (P30530 26-894)": "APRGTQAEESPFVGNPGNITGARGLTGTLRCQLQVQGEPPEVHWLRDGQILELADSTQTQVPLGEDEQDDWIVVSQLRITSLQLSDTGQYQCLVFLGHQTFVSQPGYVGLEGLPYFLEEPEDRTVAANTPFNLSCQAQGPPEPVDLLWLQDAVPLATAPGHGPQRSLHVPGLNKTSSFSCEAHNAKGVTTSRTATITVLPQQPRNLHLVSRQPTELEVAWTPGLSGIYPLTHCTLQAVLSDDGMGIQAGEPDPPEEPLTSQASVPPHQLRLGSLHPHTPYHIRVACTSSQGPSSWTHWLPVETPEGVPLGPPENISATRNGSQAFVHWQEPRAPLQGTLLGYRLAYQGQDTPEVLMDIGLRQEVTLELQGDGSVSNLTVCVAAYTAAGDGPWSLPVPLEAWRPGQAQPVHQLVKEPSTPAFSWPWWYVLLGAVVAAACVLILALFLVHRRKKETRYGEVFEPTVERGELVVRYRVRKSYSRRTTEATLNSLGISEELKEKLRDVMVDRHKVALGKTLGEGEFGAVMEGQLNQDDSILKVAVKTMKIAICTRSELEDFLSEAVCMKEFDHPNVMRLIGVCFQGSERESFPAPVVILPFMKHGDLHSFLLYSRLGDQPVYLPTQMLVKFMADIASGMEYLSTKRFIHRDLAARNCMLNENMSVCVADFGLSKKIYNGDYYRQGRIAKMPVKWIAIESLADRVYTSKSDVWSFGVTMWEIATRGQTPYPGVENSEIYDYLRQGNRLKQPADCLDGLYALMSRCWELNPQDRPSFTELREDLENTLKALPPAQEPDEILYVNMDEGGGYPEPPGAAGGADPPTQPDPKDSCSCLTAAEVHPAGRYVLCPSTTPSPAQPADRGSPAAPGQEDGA", "test": "33PanQinase kinome profiling", "type": "biochemical", "settings": "1 μM"}, "[5]": {"target": "T3, FLT3 (Homo sapiens, UniProt P36888)", "T3 sequence (P36888 564-993 limits assumed)": "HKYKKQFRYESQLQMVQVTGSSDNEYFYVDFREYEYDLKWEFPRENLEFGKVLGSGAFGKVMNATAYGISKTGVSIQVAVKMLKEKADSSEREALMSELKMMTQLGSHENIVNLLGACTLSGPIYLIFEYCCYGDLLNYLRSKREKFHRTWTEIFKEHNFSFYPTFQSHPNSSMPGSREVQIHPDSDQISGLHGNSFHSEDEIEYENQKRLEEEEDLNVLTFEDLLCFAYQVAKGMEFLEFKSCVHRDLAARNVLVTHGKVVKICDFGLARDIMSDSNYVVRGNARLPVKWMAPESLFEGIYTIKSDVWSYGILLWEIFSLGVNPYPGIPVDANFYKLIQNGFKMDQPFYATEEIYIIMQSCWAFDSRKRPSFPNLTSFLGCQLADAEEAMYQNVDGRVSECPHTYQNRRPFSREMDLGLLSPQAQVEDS", "test": "33PanQinase kinome profiling", "type": "biochemical", "settings": "mean, respect to DMSO control"}, "[6]": {"tested_on": "OE33 cells", "test": "Cell cycle assay", "type": "cell-based, human", "settings": "3 μM, 72 h, vs DMSO control"}, "[7]": {"target": "T4, AuroraA (Homo sapiens, UniProt O14965)", "T4 sequence (O14965 1-403)": "T1 sequence (O14965 1-403)", "test": "33PanQinase kinome profiling", "type": "biochemical", "settings": "mean, respect to DMSO control"}, "[8]": {"target": "RET (Homo sapiens, UniProt P07949)", "sequence (P07949 29-1114)": "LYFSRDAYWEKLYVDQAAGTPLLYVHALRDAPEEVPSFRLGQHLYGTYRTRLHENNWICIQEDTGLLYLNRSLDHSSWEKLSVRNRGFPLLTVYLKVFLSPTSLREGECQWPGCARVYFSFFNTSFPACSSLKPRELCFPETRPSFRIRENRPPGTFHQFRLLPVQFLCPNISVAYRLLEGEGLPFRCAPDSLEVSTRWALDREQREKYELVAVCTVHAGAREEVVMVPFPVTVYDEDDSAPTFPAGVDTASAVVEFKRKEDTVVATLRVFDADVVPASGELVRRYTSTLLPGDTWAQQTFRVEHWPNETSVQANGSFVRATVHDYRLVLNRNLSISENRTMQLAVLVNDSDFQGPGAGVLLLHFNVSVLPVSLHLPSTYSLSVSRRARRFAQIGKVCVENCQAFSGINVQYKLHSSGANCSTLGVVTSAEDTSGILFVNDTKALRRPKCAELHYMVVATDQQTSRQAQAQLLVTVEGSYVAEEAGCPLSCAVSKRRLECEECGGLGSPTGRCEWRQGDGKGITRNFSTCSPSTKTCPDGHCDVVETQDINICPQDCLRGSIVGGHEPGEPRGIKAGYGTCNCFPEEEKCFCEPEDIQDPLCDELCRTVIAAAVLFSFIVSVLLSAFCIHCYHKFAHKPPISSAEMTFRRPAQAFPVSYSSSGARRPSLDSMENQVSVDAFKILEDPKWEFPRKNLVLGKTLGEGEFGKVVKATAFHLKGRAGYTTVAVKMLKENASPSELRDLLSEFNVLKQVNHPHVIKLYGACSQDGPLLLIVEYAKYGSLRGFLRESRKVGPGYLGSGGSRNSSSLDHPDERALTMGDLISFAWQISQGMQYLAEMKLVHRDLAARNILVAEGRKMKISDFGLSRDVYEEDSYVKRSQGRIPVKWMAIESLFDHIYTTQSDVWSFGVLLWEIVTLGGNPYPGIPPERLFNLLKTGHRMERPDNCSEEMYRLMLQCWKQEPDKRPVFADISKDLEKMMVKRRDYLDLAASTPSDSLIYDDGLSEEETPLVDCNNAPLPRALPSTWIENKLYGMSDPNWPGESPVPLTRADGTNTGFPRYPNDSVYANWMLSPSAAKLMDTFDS", "test": "33PanQinase kinome profiling", "type": "biochemical", "settings": "mean, respect to DMSO control"}}, "note": "Entries after “also recorded” stand apart in the source; their conditions may differ.", "data": [{"smiles": "COC1CCN(C(=O)/C=C/c2nn(CC3CCCC3)c3ncnc(N)c23)CC1", "note": "[1A7]", "values": [{"measurement": "antiproliferative activity (in words)", "setting": "[1]", "result": "completely inactive"}]}, {"smiles": "CNc1ncc2c(/C=C/C(=O)N3CCC4(CC3)OCCO4)nn(Cc3cccc(C)c3)c2n1", "note": "[2C4]", "values": [{"measurement": "fold increase in antiproliferative potency over 2B10", "setting": "[1]; compared with 2B10", "result": 2, "unit": "fold"}]}, {"smiles": "CNc1ncc2c(/C=C/C(=O)N3CCC(OC)CC3)nn(Cc3cccc(C(F)(F)F)c3)c2n1", "note": "[2D7, (2E)-1-(4-Methoxypiperidin-1-yl)-3-[6-(methylamino)-1-{[3-(trifluoromethyl)phenyl]methyl}-1H-pyrazolo[3,4-d]pyrimidin-3-yl]prop-2-en-1-one]", "values": [{"measurement": "effect on the cell cycle (in words)", "setting": "[2]", "result": "enrichment of cells in the S and G2/M phases"}, {"measurement": "AURKA target engagement in cells (in words)", "setting": "[3]", "result": "direct dose-dependent binding"}, {"measurement": "inhibition of AXL (in words)", "setting": "[4]", "result": "minimal to no inhibition"}, {"measurement": "% Inhibition [1uM]", "setting": "[5]", "result": "minimal to no inhibition"}, {"measurement": "effect on the cell cycle (in words)", "setting": "[6]", "result": "rapid arrest of cells in the G2/M phase; also recorded: slight increase in the number of cells in the sub-G1 phase"}, {"measurement": "% Inhibition [1uM]", "setting": "[7]", "result": "> 50", "unit": "%"}, {"measurement": "% Inhibition [1uM]", "setting": "[8]", "result": "minimal to no inhibition"}]}, {"smiles": "Nc1ncnc2c1c(/C=C/C(=O)O)nn2CC1CCCC1", "note": "[compound 10]", "values": [{"measurement": "antiproliferative activity (in words)", "setting": "[1]", "result": "lack of activity"}]}, {"smiles": "CNc1ncc2c(/C=C/C(=O)O)nn(CC3CCCC3)c2n1", "note": "[compound 12]", "values": [{"measurement": "antiproliferative activity (in words)", "setting": "[1]", "result": "lack of activity"}]}]}
